Columns and labels:
patients with myotonia = assay: Disease history: previous treatments for myotonia and myalgia (case reports); conditions: for effect of previous treatment on myotonia, patient 6: CLCN1-congenital myotonia; for effect of previous treatment on myotonia, patient 6 / outcome of previous treatment of myotonia, patient 2 / outcome of previous treatment of myalgia, patient 2: disease history; for outcome of previous treatment of myotonia, patient 2 / outcome of previous treatment of myalgia, patient 2: DM2
Description: This person was diagnosed with DM2. As DM2-related comorbidities they have diabetes mellitus type 2 without diabetic neuropathy, and controlled paroxysmal atrial fibrillation. Their main muscular complaints have always been a severe grip myotonia and myotonia of the legs while walking, as well as persistent myalgia especially at lower back. In the last several years they developed a proximal and axial muscle weakness (MRC grade 4). […] After discussing potential risks and benefits, a compassionate use with low dose CBD/THC has been started.
This person was diagnosed with CLCN1-congenital myotonia. They have a severe therapy-resistant grip and generalized myotonia.

dystrophic mdx mice = conditions: injection; mostly via activation of TRPV1 and TRPA1; cited from earlier work

Row | Compound | effect of previous treatment on myotonia, patient 6 (patients with myotonia) | outcome of previous treatment of myotonia, patient 2 (patients with myotonia) | outcome of previous treatment of myalgia, patient 2 (patients with myotonia) | further results
1 | Cc1cccc(C)c1OCC(C)N (stereo not shown) [mexiletine] | improved the myotonia | suspended due to inefficacy and risk of cardiac arrhythmias | – | drug-related side effect of previous treatment, patient 6 (patients with myotonia; resolved on drug discontinuation): severe major depression
2 | CC(C)Cc1ccc(C(C)C(=O)O)cc1 (stereo not shown) [ibuprofen] | – | – | unsuccessfully treated | –
3 | Cc1ccc(C(=O)C(C)CN2CCCCC2)cc1 (stereo not shown) [tolperisone] | no relevant improvement of myotonia was obtained | – | – | –
4 | C=C(C)[C@@H]1CCC(C)=C[C@H]1c1c(O)cc(CCCCC)cc1O [CBD, Cannabidiol] | – | – | – | myotube formation and inflammation (dystrophic mdx mice): promoted myotube formation and reduced inflammation
5 | Nc1nnc(-c2cccc(Cl)c2Cl)c(N)n1 [lamotrigine] | no relevant improvement of myotonia was obtained | – | – | –
6 | NC(=O)N1c2ccccc2C=Cc2ccccc21 [carbamazepine] | no relevant improvement of myotonia was obtained | suspended due to inefficacy and risk of cardiac arrhythmias | – | –
7 | COc1ccccc1OCC(O)COC(N)=O (stereo not shown) [methocarbamol] | – | – | unsuccessfully treated | –
8 | CC(C)C[C@H](CN)CC(=O)O [pregabalin] | – | suspended due to inefficacy and risk of cardiac arrhythmias | unsuccessfully treated | –
9 | O=C(NCC1CCCCN1)c1cc(OCC(F)(F)F)ccc1OCC(F)(F)F (stereo not shown) [flecainid] | no relevant improvement of myotonia was obtained | – | – | –

From patent US10702495B2, “Method and compositions for treating dystrophies and myotonia” (priority 2017, dated 2020)
